In patent publication US12329159B2, “Systems and methods for use of chlorine dioxide in cultivation and post-harvest applications” (Prokure Solutions, LLC, priority 2018, dated 2025):

Experiments:
Assay type in all cases: in vivo
Cannabis plants = experiment: Toxicity responses of Cannabis plants to applications of gaseous chlorine dioxide
Description: Two varieties of Cannabis plants in both vegetative and flowering stages were exposed to various amounts of chlorine dioxide gas to determine if plant damage would result. Adverse effects were based on discoloration or chlorosis type damage to leaves and/or flowers. Leaves of each plant were collected prior to experiments and again 2 days post treatment for tissue analysis. Leaf samples were sent to a third-party laboratory for analysis of nutrients and total chloride (Cl^−). Tissue analysis of leaves pre- and post-treatment were compared to determine uptake of chlorine dioxide and/or its by-products. Control plants were used for visual comparison in determining plant damage. All plants were monitored for several days after application of chlorine dioxide gas. Plants were potted in soil and appeared healthy and undamaged unless otherwise noted. All plants including controls were of the same age for each growth stage. • The chlorine dioxide gas exposure was based on concentration with units of mg of chlorine dioxide per cubic foot of space.
A first trial was performed in a space of 1550 cubic feet with four healthy plants in the space, two of which were in flower at week 5 of 8, and the other two of which had one week of vegetative stage remaining. The chlorine dioxide dose was 1.9 mg chlorine dioxide per cubic foot of space (one 25 g ProKure® G Fast Release Gas packet (ProKure® Solutions, Phoenix, AZ) and 4 liters of 500 ppm chlorine dioxide solution). Contact time was 18 hours, and the room was maintained in darkness for the duration of the contact time.
A second trial was performed in a space of about 33400 cubic feet with 840 flowering plants at week eight of an eight-week cultivation cycle. All plants were healthy. […] The chlorine dioxide dose was 0.45 mg chlorine dioxide gas per cubic foot of space. Contact time was 18 hours, and the room was maintained in darkness for the first 12 hours, and grow lights came on for the last 6 hours of contact time, but the chlorine dioxide gas concentration monitoring was only performed for about 10 hours.

[1] = tested on: visible mold growing on flowers; experiment: Trial 3: gaseous chlorine dioxide treatment of flowering plants with visible mold; conditions: 0.45 mg chlorine dioxide gas per cubic foot, 18 hours
Description: A third trial was performed in a 33400 cubic foot space with 840 flowering plants at week eight of an eight-week cultivation cycle. Most plants had visible mold growing on flowers. The chlorine dioxide dose was 0.45 mg chlorine dioxide gas per cubic foot of space. Contact time was 18 hours, the room was maintained in darkness for the first 12 hours, and grow lights came on for the last 6 hours contact time, but the chlorine dioxide gas concentration monitoring was only performed for about 10 hours.
The HVAC system for the 33400 cubic foot space that had 840 flowering plants in the last week of flower failed. Within hours the temperature and humidity increased, and visible mold growth was found on most of the flower within 24 hours. To treat the mold and potentially prevent the loss of over 100 pounds of Cannabis flower product, a dose of 0.45 mg chlorine dioxide gas per cubic foot was dispensed into the space (14× ProKure® G Fast Release Gas packets (25-gram) (ProKure® Solutions)). […] Essentially, it was never above the detection limit of the sensor (0.5 ppmv). […] An odor would be expected for this application rate, so the lack of odor provides further evidence that the concentration of chlorine dioxide remained below the odor threshold of about 0.03 to 0.1 ppmv. […]

Alternaria = experiment: Spore trap testing, treated greenhouse: Alternaria; conditions: 1.2 mg chlorine dioxide gas per hour per 4000 cubic feet
Description: (§1) Very low-level chlorine dioxide protection using about 3 mg chlorine dioxide gas per hour for every 4000 cubic feet (50-gram ProKure® D Extended Release Gas product (ProKure® Solutions), 2000 mg total over 4 weeks) was tested to determine the effects on reduction and prevention of fungal microorganism counts. The rate of chlorine dioxide production will vary depending on the relative humidity (RH) in the room. The above rate is for RH range of 40-60%. Each 3 mg chlorine dioxide per hour product (50-gram) unit will cover 4000 cubic feet of space. The 4000 cubic foot volume is recommended for safety reasons. This volume of space insures that the concentration of the gas remains below the OSHA regulated Permissible Exposure Limit (PEL) which is 0.1 ppmv (time weighted average (TWA) over a 8-hours per day or 40-hour work week) and the Short Term Exposure Limit (STEL) which is 0.3 ppmv (TWA over any 15-minute period) for chlorine dioxide.
(§2) All data is based on the dose described a unless otherwise noted. The spore counts per cubic meter prior to treatment are compared to spore counts per cubic meter post treatment with the treatment time indicated. […]
(§3) Treatment was performed using 1.2 mg chlorine dioxide gas per hour per 4000 cubic feet. […] The fungus could not be detected by visual inspection after about 30 days of treatment. […]

Aureobasidium = experiment: Spore trap testing, treated greenhouse: Aureobasidium; conditions: 1.2 mg chlorine dioxide gas per hour per 4000 cubic feet
Description: as §1, §2, §3

Basidiospores = experiment: Spore trap testing, treated greenhouse: Basidiospores; conditions: 1.2 mg chlorine dioxide gas per hour per 4000 cubic feet
Description: as §1, §2, §3

Bipolaris/Drechslera = experiment: Spore trap testing, treated greenhouse: Bipolaris/Drechslera; conditions: 1.2 mg chlorine dioxide gas per hour per 4000 cubic feet
Description: as §1, §2, §3

Chaetomium = experiment: Spore trap testing, treated greenhouse: Chaetomium; conditions: 1.2 mg chlorine dioxide gas per hour per 4000 cubic feet
Description: as §1, §2, §3

Cladosporium = experiment: Spore trap testing, treated greenhouse: Cladosporium; conditions: 1.2 mg chlorine dioxide gas per hour per 4000 cubic feet
Description: as §1, §2, §3

Oidium = experiment: Spore trap testing, treated greenhouse: Oidium; conditions: 1.2 mg chlorine dioxide gas per hour per 4000 cubic feet
Description: as §1, §2, §3

Smuts/Myxomycetes = experiment: Spore trap testing, treated greenhouse: Smuts/Myxomycetes; conditions: 1.2 mg chlorine dioxide gas per hour per 4000 cubic feet
Description: as §1, §2, §3

Ulocladium = experiment: Spore trap testing, treated greenhouse: Ulocladium; conditions: 1.2 mg chlorine dioxide gas per hour per 4000 cubic feet
Description: as §1, §2, §3

total spores = experiment: Spore trap testing, treated greenhouse: Total spores; conditions: 1.2 mg chlorine dioxide gas per hour per 4000 cubic feet
Description: as §1, §2, §3

## [O][Cl+][O-] [chlorine dioxide]
Cannabis plants; Trial 1, 1.9 mg chlorine dioxide per cubic foot
  assessment of the dose: considered detrimental
Cannabis plants; Trial 1, 1.9 mg chlorine dioxide per cubic foot, 18 hours
  plant death: none of the 4 plants died
Cannabis plants; Trial 1, 1.9 mg chlorine dioxide per cubic foot, 18 hours, 24-48 hours post-treatment
  plant damage: all 4 plants showed damage in the form of yellowing and chlorosis
Cannabis plants; Trial 1, 1.9 mg chlorine dioxide per cubic foot, immediately following the 18 hours of contact time
  plant appearance: the plants still appeared healthy
Cannabis plants; Trial 2, 0.45 mg chlorine dioxide per cubic foot, 18 hours, 840 healthy flowering plants
  plant damage: All plants remained healthy and undamaged
[1]
  visible mold on the plants after the application: No mold was visible on the plants after the application
Alternaria; 7 Days Post-Treatment
  Alternaria spore Count: 0 per cubic meter
Alternaria; 45 Days Post-Treatment
  Alternaria spore Count: 0 per cubic meter
Aureobasidium; 7 Days Post-Treatment
  Aureobasidium spore Count: 0 per cubic meter
Aureobasidium; 45 Days Post-Treatment
  Aureobasidium spore Count: 0 per cubic meter
Basidiospores; 7 Days Post-Treatment
  Basidiospores Count: 53 per cubic meter
Basidiospores; 45 Days Post-Treatment
  Basidiospores Count: 0 per cubic meter
Bipolaris/Drechslera; 7 Days Post-Treatment
  Bipolaris/Drechslera spore Count: 0 per cubic meter
Bipolaris/Drechslera; 45 Days Post-Treatment
  Bipolaris/Drechslera spore Count: 0 per cubic meter
Chaetomium; 7 Days Post-Treatment
  Chaetomium spore Count: 0 per cubic meter
Chaetomium; 45 Days Post-Treatment
  Chaetomium spore Count: 0 per cubic meter
Cladosporium; 7 Days Post-Treatment
  Cladosporium spore Count: 54 per cubic meter
Cladosporium; 45 Days Post-Treatment
  Cladosporium spore Count: 0 per cubic meter
Oidium; 7 Days Post-Treatment
  Oidium spore Count: 13 per cubic meter
Oidium; 45 Days Post-Treatment
  Oidium spore Count: 0 per cubic meter
Smuts/Myxomycetes; 7 Days Post-Treatment
  Smuts/Myxomycetes spore Count: 173 per cubic meter
Smuts/Myxomycetes; 45 Days Post-Treatment
  Smuts/Myxomycetes spore Count: 13 per cubic meter
Ulocladium; 7 Days Post-Treatment
  Ulocladium spore Count: 0 per cubic meter
Ulocladium; 45 Days Post-Treatment
  Ulocladium spore Count: 0 per cubic meter
Total spores; 7 Days Post-Treatment
  Total spore Count: 320 per cubic meter
Total spores; 45 Days Post-Treatment
  Total spore Count: 13 per cubic meter
